Broadly, the EC50 is the concentration needed to bring the measured effect to its halfway point.

This assay has as its target T1, human OX2R (Homo sapiens, UniProt O43614).
T1 construct: host or cells: CHO-K1 (Chinese Hamster Ovary K1)
T1 sequence (O43614 1-444): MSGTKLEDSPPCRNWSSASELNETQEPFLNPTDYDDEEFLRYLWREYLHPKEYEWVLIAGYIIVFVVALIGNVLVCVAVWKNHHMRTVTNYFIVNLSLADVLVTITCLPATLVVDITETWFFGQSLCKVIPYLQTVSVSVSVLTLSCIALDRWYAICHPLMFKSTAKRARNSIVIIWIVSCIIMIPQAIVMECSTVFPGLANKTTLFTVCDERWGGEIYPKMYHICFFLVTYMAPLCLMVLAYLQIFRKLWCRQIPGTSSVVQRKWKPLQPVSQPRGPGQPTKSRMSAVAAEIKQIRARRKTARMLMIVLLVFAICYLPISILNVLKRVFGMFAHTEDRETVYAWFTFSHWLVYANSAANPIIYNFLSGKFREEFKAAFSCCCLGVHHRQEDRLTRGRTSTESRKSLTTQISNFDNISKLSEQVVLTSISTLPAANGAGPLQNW
Nature of the assay: Evaluation of OX2R agonist activity (intracellular calcium, CHO-K1 cells with forced expression of human OX2R). The assay is classed as cell-based. To be noted: CHO-K1 cells expressing human OX2R; 100% = 5 µM of the reference compound; read-out: hOX2R EC50. In outline: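 Cells seeded 7500/well, cultured 24 h, loaded with Fluo 4-AM (2.5 µg/mL final) plus probenecid for 30 min. Calcium response read as 480/540 nm excitation ratio; max–min signal 5–7 s after compound addition, normalized to buffer (0%) and 5 µM reference agonist (100%). EC50 from concentration series; 0.5% DMSO final.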
Background: A change in cytosolic calcium serves as a functional read-out for many receptors and channels.
Take `C[C@H](O)C(=O)N1C2CC(C2)[C@H](NS(C)(=O)=O)[C@@H]1Cc1cccc(-c2cc(F)cc(F)c2)c1F` [Example 15, N-{(3S,4S)-2-[(2S)-2-Hydroxypropanoyl]-3-[(2,3',5'-trifluoro[biphenyl]-3-yl)methyl]-2-azabicyclo[3.1.1]heptan-4-yl}methanesulfonamide]: the 50% effective concentration (EC50) amounted to 303 nM.

With `CC(C)(O)C(=O)N1C2CC(C2)[C@H](NS(C)(=O)=O)[C@@H]1Cc1cccc(-c2cc(F)cc(C(F)F)c2)c1F` [Example 51, N-[(3S,4S)-3-{[3'-(Difluoromethyl)-2,5'-difluoro[biphenyl]-3-yl]methyl}-2-(2-hydroxy-2-methylpropanoyl)-2-azabicyclo[3.1.1]heptan-4-yl]methanesulfonamide], the concentration for a half-maximal effect (EC50) turned out to be 33 nM.

Turning to `CS(=O)(=O)N[C@H]1C2CC(C2)N(C(=O)C2(C#N)CC2)[C@H]1Cc1cccc(-c2cc(F)cc(F)c2)c1F` [Example 33, N-{(3S,4S)-2-[(1-Cyanocyclopropyl)carbonyl]-3-[(2,3',5'-trifluoro[biphenyl]-3-yl)methyl]-2-azabicyclo[3.1.1]heptan-4-yl}methanesulfonamide], the EC50 was 326 nM.

In the case of `C[C@@H](O)C(=O)N1C2CC(C2)[C@H](NS(C)(=O)=O)[C@@H]1Cc1cccc(-c2cccc(F)c2)c1F` [Example 40, N-{(3S,4S)-3-[(2,3'-Difluoro[biphenyl]-3-yl)methyl]-2-[(2R)-2-hydroxypropanoyl]-2-azabicyclo[3.1.1]heptan-4-yl}methanesulfonamide], the concentration for a half-maximal effect (EC50) turned out to be 49 nM.

On to `C[C@H](O)CC(=O)N1C2CC(C2)[C@H](NS(C)(=O)=O)[C@@H]1Cc1cccc(-c2ccccc2)c1F` (single isomer, unassigned) [Example 86], for which the concentration for a half-maximal effect (EC50) came to 112 nM.

With `CS(=O)(=O)NC1C(Cc2cccc(-c3cc(F)cc(F)c3)c2F)N(C(=O)C2CC2)C2CC1(F)C2` (single isomer, unassigned) [Example 36, N-{(3S,4R)-2-(Cyclopropylcarbonyl)-5-fluoro-3-[(2,3',5'-trifluoro[biphenyl]-3-yl)methyl]-2-azabicyclo[3.1.1]heptan-4-yl}methanesulfonamide or N-{(3R,4S)-2-(cyclopropylcarbonyl)-5-fluoro-3-[(2,3',5'-trifluoro[biphenyl]-3-yl)methyl]-2-azabicyclo[3.1.1]heptan-4-yl}methanesulfonamide], the half-maximal effective concentration (EC50) is 62 nM.

As to `[2H]c1c([2H])c([2H])c(-c2cccc(C[C@H]3[C@@H](NS(C)(=O)=O)C4CC(C4)N3C(=O)[C@@H](C)O)c2F)c([2H])c1[2H]` [Example 54, N-{(3S,4S)-3-{[2-Fluoro(2',3',4',5',6'-^2H5)[biphenyl]-3-yl]methyl}-2-[(2R)-2-hydroxypropanoyl]-2-azabicyclo[3.1.1]heptan-4-yl}methanesulfonamide], the EC50 was found to be 22 nM.

For `C[C@@H](O)C(=O)N1C2CC(C2)[C@H](NS(C)(=O)=O)[C@@H]1Cc1cccc(-c2cccc(C3CC3)n2)c1F` [Example 43, N-{(3S,4S)-3-[3-(6-Cyclopropylpyridin-2-yl)-2-fluorobenzyl]-2-[(2R)-2-hydroxypropanoyl]-2-azabicyclo[3.1.1]heptan-4-yl}methanesulfonamide], the EC50 is 49 nM.

For the molecule `CCOC(=O)N1C2CC(C2)[C@H](NS(C)(=O)=O)[C@@H]1Cc1cccc(-c2ccccc2)c1F` [Example 65, Ethyl (3S,4S)-3-[(2-fluoro[biphenyl]-3-yl)methyl]-4-[(methylsulfonyl)amino]-2-azabicyclo[3.1.1]heptane-2-carboxylate], the 50% effective concentration (EC50) is 393 nM.

On to `CC(C)NC(=O)N1C2CC(C2)[C@H](NS(C)(=O)=O)[C@@H]1Cc1cccc(-c2cc(F)cc(F)c2)c1F` [Example 35, (3S,4S)-4-[(Methylsulfonyl)amino]-N-(propan-2-yl)-3-[(2,3',5'-trifluoro[biphenyl]-3-yl)methyl]-2-azabicyclo[3.1.1]heptane-2-carboxamide], for which the concentration giving a half-maximal response (EC50) worked out at 75 nM.

For `CC(C)(F)C(=O)N1C2CC(F)(C2)[C@H](NS(C)(=O)=O)[C@@H]1Cc1cccc(-c2ccccc2)c1F` (single isomer, unassigned) [Example 85], the EC50 was determined as 275 nM.

These data come from patent EP4635944A1, “2-AZABICYCLO[3.1.1]HEPTANE COMPOUND” (Daiichi Sankyo Company, Limited, priority 2022, dated 2024).
